Series [1] has as its target human GCase (Homo sapiens, UniProt P04062). Briefly: Inhibitory activity against GCase (4-methylumbelliferyl β-glucoside substrate). The series is classed as biochemical. The following applies: for IC50: 4-methylumbelliferyl β-glucoside at 3 mM, pH 5.2, 37° C., 30 min.
For series [2] the following is noted: shortly after the start of the treatment; cited from earlier work.
Series [3] deals with Fibroblasts established from Gaucher patients with N370S/N370S mutation. Briefly: Chaperone rescue of residual GCase activity in Gaucher fibroblasts. The format is cell-based, human. The following applies: N370S homozygous fibroblasts, cultured 4 days with compound, at optimal concentration.

Bounds are passed on as bounds.

Chain of human GCase (P04062 40-536): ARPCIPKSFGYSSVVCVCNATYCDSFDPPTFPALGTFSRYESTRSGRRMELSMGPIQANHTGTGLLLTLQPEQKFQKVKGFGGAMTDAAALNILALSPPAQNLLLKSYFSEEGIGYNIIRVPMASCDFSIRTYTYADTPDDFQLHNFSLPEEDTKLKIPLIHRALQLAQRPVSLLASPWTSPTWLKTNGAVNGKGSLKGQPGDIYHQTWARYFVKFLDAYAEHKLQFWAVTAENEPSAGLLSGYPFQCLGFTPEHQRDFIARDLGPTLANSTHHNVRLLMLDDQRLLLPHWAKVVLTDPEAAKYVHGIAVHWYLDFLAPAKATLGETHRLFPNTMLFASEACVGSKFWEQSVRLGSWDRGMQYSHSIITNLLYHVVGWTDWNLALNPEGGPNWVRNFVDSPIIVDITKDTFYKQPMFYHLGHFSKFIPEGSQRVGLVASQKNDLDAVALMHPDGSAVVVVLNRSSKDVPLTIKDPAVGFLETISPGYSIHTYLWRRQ

In series [1], `CCCC[C@@H]1NC[C@@H](O)[C@H](O)[C@H]1CO` [Compound 11, (3R, 4R, 5R, 6S)-5-(Hydroxymethyl)-6-n-butyl-3,4-dihydroxypiperidine] registered an IC50 of 160 nM. Also, the “effect of 6-C substitution on potency towards GCase” value in series [1] (compared with the parent hydroxypiperidine) was “did not affect the potency”. In series [1], `CCCCCC[C@@H]1NC[C@@H](O)[C@H](O)[C@H]1CO` [Compound 12, (3R, 4R, 5R, 6S)-5-(Hydroxymethyl)-6-n-hexyl-3,4-dihydroxypiperidine] displayed an IC50 of 4.2 nM. Moreover, in series [1] (relative to IFG), the “increase in potency over IFG” value is “approximately 13 fold”. Regarding `CCCCCCC[C@@H]1NC[C@@H](O)[C@H](O)[C@H]1CO` [Compound 13, (3R, 4R, 5R, 6S)-5-(Hydroxymethyl)-6-n-heptyl-3,4-dihydroxypiperidine], the IC50 in series [1] came out at 1.8 nM. In other words, the single-digit nanomolar range.

In turn, `CCCCCCCC[C@@H]1NC[C@@H](O)[C@H](O)[C@H]1CO` [Compound 14, (3R, 4R, 5R, 6S)-5-(Hydroxymethyl)-6-n-octyl-3,4-dihydroxypiperidine] had an IC50 in series [1] of 0.8 nM. Turning to `CCCCN1CC(O)C(O)C(O)C1CO` (stereo not shown) [N-butyl 1-deoxynojirimycin], the “patients with diarrhea (most frequent adverse effect)” value in series [2] is recorded as 79%. Regarding `OC[C@H]1CNC[C@@H](O)[C@@H]1O` [hydroxypiperidine, isofagomine], the “increase of residual enzyme activity in patient cells” value in series [3] is recorded as “approximately 2 fold”. The molecule “N-butyl hydroxypiperidine [reference compound]” returned an IC50 in series [1] of 44000 nM. Turning to “N-nonyl hydroxypiperidine [reference compound]”, the IC50 in series [1] is over 100000 nM.
